Reference: ChEMBL document CHEMBL1949611, “Functional characterization of rat glutaryl-CoA dehydrogenase and its comparison with straight-chain acyl-CoA dehydrogenase” (Bioorg Med Chem Lett, 2011)
The source made the active and inactive calls. The rule behind the calls is not given here.

Organism: Rattus norvegicus
Experiment: Activity of rat glutaryl-co A dehydrogenase expressed in Escherichia coli BL21
Conditions: not given

Row | Km [µM] | kcat [s⁻¹] | Vmax [nmol/mg/min] | Structure (SMILES)
1 | 20 | 2.1 |  | CCCCCC(=O)SCCNC(=O)CCNC(=O)C(O)C(C)(C)COP(=O)(O)OP(=O)(O)OC[C@H]1O[C@@H](n2cnc3c(N)ncnc32)[C@H](O)[C@@H]1OP(=O)(O)O (stereo not given in full)
2 | 74 | 0.02 | 27 | CCCCCC/C=C/CC(=O)SCCNC(=O)CCNC(=O)C(O)C(C)(C)COP(=O)(O)OP(=O)(O)OC[C@H]1O[C@@H](n2cnc3c(N)ncnc32)[C@H](O)[C@@H]1OP(=O)(O)O (stereo not given in full)
3 | 12 | 2.7 |  | CCCC(=O)SCCNC(=O)CCNC(=O)C(O)C(C)(C)COP(=O)(O)OP(=O)(O)OC[C@H]1O[C@@H](n2cnc3c(N)ncnc32)[C@H](O)[C@@H]1OP(=O)(O)O (stereo not given in full)
4 | 49 | 0.24 | 331 | CC/C=C\CC(=O)SCCNC(=O)CCNC(=O)C(O)C(C)(C)COP(=O)(O)OP(=O)(O)OC[C@H]1O[C@@H](n2cnc3c(N)ncnc32)[C@H](O)[C@@H]1OP(=O)(O)O (stereo not given in full)
5 | 51 | 0.099 | 136 | CC/C=C/CC(=O)SCCNC(=O)CCNC(=O)C(O)C(C)(C)COP(=O)(O)OP(=O)(O)OC[C@H]1O[C@@H](n2cnc3c(N)ncnc32)[C@H](O)[C@@H]1OP(=O)(O)O (stereo not given in full)
6 | 58 | 0.041 | 56 | CCCC/C=C/CC(=O)SCCNC(=O)CCNC(=O)C(O)C(C)(C)COP(=O)(O)OP(=O)(O)OC[C@H]1O[C@@H](n2cnc3c(N)ncnc32)[C@H](O)[C@@H]1OP(=O)(O)O (stereo not given in full)
7 | 28 | 1.1 |  | CCCCCCCC(=O)SCCNC(=O)CCNC(=O)C(O)C(C)(C)COP(=O)(O)OP(=O)(O)OC[C@H]1O[C@@H](n2cnc3c(N)ncnc32)[C@H](O)[C@@H]1OP(=O)(O)O (stereo not given in full)
8 | 66 | 0.083 | 113 | CCCC/C=C\CC(=O)SCCNC(=O)CCNC(=O)C(O)C(C)(C)COP(=O)(O)OP(=O)(O)OC[C@H]1O[C@@H](n2cnc3c(N)ncnc32)[C@H](O)[C@@H]1OP(=O)(O)O (stereo not given in full)
9 | 54 | 0.18 |  | CCCCCCCCCC(=O)SCCNC(=O)CCNC(=O)C(O)C(C)(C)COP(=O)(O)OP(=O)(O)OC[C@H]1O[C@@H](n2cnc3c(N)ncnc32)[C@H](O)[C@@H]1OP(=O)(O)O (stereo not given in full)
10 | 88 | 0.046 | 62 | CCCCCC/C=C\CC(=O)SCCNC(=O)CCNC(=O)C(O)C(C)(C)COP(=O)(O)OP(=O)(O)OC[C@H]1O[C@@H](n2cnc3c(N)ncnc32)[C@H](O)[C@@H]1OP(=O)(O)O (stereo not given in full)

Organism: Rattus norvegicus
Experiment: Ratio of Kcat to Km for rat glutaryl-co A dehydrogenase expressed in Escherichia coli BL21
Conditions: not given

Row | kcat/Km | kcat/Km (10'-3/microM/s) | kcat/Km (10'-2/microM/s) | Structure (SMILES)
11 | 110000 M⁻¹ s⁻¹ |  |  | CCCCCC(=O)SCCNC(=O)CCNC(=O)C(O)C(C)(C)COP(=O)(O)OP(=O)(O)OC[C@H]1O[C@@H](n2cnc3c(N)ncnc32)[C@H](O)[C@@H]1OP(=O)(O)O (stereo not given in full)
12 | 2.7 ×10⁻⁴ /µM/s |  |  | CCCCCC/C=C/CC(=O)SCCNC(=O)CCNC(=O)C(O)C(C)(C)COP(=O)(O)OP(=O)(O)OC[C@H]1O[C@@H](n2cnc3c(N)ncnc32)[C@H](O)[C@@H]1OP(=O)(O)O (stereo not given in full)
13 | 230000 M⁻¹ s⁻¹ |  |  | CCCC(=O)SCCNC(=O)CCNC(=O)C(O)C(C)(C)COP(=O)(O)OP(=O)(O)OC[C@H]1O[C@@H](n2cnc3c(N)ncnc32)[C@H](O)[C@@H]1OP(=O)(O)O (stereo not given in full)
14 |  | 4.9 |  | CC/C=C\CC(=O)SCCNC(=O)CCNC(=O)C(O)C(C)(C)COP(=O)(O)OP(=O)(O)OC[C@H]1O[C@@H](n2cnc3c(N)ncnc32)[C@H](O)[C@@H]1OP(=O)(O)O (stereo not given in full)
15 |  | 1.9 |  | CC/C=C/CC(=O)SCCNC(=O)CCNC(=O)C(O)C(C)(C)COP(=O)(O)OP(=O)(O)OC[C@H]1O[C@@H](n2cnc3c(N)ncnc32)[C@H](O)[C@@H]1OP(=O)(O)O (stereo not given in full)
16 | 7.1 ×10⁻⁴ /µM/s |  |  | CCCC/C=C/CC(=O)SCCNC(=O)CCNC(=O)C(O)C(C)(C)COP(=O)(O)OP(=O)(O)OC[C@H]1O[C@@H](n2cnc3c(N)ncnc32)[C@H](O)[C@@H]1OP(=O)(O)O (stereo not given in full)
17 |  |  | 3.9 | CCCCCCCC(=O)SCCNC(=O)CCNC(=O)C(O)C(C)(C)COP(=O)(O)OP(=O)(O)OC[C@H]1O[C@@H](n2cnc3c(N)ncnc32)[C@H](O)[C@@H]1OP(=O)(O)O (stereo not given in full)
18 |  | 1.3 |  | CCCC/C=C\CC(=O)SCCNC(=O)CCNC(=O)C(O)C(C)(C)COP(=O)(O)OP(=O)(O)OC[C@H]1O[C@@H](n2cnc3c(N)ncnc32)[C@H](O)[C@@H]1OP(=O)(O)O (stereo not given in full)
19 |  | 3.3 |  | CCCCCCCCCC(=O)SCCNC(=O)CCNC(=O)C(O)C(C)(C)COP(=O)(O)OP(=O)(O)OC[C@H]1O[C@@H](n2cnc3c(N)ncnc32)[C@H](O)[C@@H]1OP(=O)(O)O (stereo not given in full)
20 | 5.2 ×10⁻⁴ /µM/s |  |  | CCCCCC/C=C\CC(=O)SCCNC(=O)CCNC(=O)C(O)C(C)(C)COP(=O)(O)OP(=O)(O)OC[C@H]1O[C@@H](n2cnc3c(N)ncnc32)[C@H](O)[C@@H]1OP(=O)(O)O (stereo not given in full)

Organism: Rattus norvegicus
Experiment: Time-dependent inhibition of rat glutaryl-co A dehydrogenase after 30 mins by spectrophotometry
Conditions: not given

Row | inhibition [%] | Structure (SMILES)
21 | 2 | CCCCCC#CC(=O)SCCNC(=O)CCNC(=O)C(O)C(C)(C)COP(=O)(O)OP(=O)(O)OC[C@H]1O[C@@H](n2cnc3c(N)ncnc32)[C@H](O)[C@@H]1OP(=O)(O)O (stereo not given in full)

Target: not listed separately
Experiment: (§1) Inhibition of rat glutaryl-co A dehydrogenase by spectrophotometry
Conditions: not given

Row | Ki [µM] | Structure (SMILES)
22 | 43 | CCC/C=C/C#CC(=O)SCCNC(=O)CCNC(=O)C(O)C(C)(C)COP(=O)(O)OP(=O)(O)OC[C@H]1O[C@@H](n2cnc3c(N)ncnc32)[C@H](O)[C@@H]1OP(=O)(O)O (stereo not given in full)
23 | 18 | CCCCCC#CC(=O)SCCNC(=O)CCNC(=O)C(O)C(C)(C)COP(=O)(O)OP(=O)(O)OC[C@H]1O[C@@H](n2cnc3c(N)ncnc32)[C@H](O)[C@@H]1OP(=O)(O)O (stereo not given in full)

Organism: Rattus norvegicus
Experiment: as §1
Conditions: not given

Row | Kinact [min⁻¹] | Structure (SMILES)
24 | 0.024 | CCC/C=C/C#CC(=O)SCCNC(=O)CCNC(=O)C(O)C(C)(C)COP(=O)(O)OP(=O)(O)OC[C@H]1O[C@@H](n2cnc3c(N)ncnc32)[C@H](O)[C@@H]1OP(=O)(O)O (stereo not given in full)
25 | 0.2 | CCCCCC#CC(=O)SCCNC(=O)CCNC(=O)C(O)C(C)(C)COP(=O)(O)OP(=O)(O)OC[C@H]1O[C@@H](n2cnc3c(N)ncnc32)[C@H](O)[C@@H]1OP(=O)(O)O (stereo not given in full)

Same assay, conditions: TDE = time-dependent effect

Row | inhibition | Structure (SMILES)
26 | tde | CCC/C=C/C#CC(=O)SCCNC(=O)CCNC(=O)C(O)C(C)(C)COP(=O)(O)OP(=O)(O)OC[C@H]1O[C@@H](n2cnc3c(N)ncnc32)[C@H](O)[C@@H]1OP(=O)(O)O (stereo not given in full)
27 | tde | CCCCCC#CC(=O)SCCNC(=O)CCNC(=O)C(O)C(C)(C)COP(=O)(O)OP(=O)(O)OC[C@H]1O[C@@H](n2cnc3c(N)ncnc32)[C@H](O)[C@@H]1OP(=O)(O)O (stereo not given in full)

Organism: Rattus norvegicus
Experiment: Irreversible inhibition of rat glutaryl-co A dehydrogenase by dialysis method
Conditions: not given

Row | inhibition | Structure (SMILES)
28 | Active | CCC/C=C/C#CC(=O)SCCNC(=O)CCNC(=O)C(O)C(C)(C)COP(=O)(O)OP(=O)(O)OC[C@H]1O[C@@H](n2cnc3c(N)ncnc32)[C@H](O)[C@@H]1OP(=O)(O)O (stereo not given in full)
29 | Active | CCCCCC#CC(=O)SCCNC(=O)CCNC(=O)C(O)C(C)(C)COP(=O)(O)OP(=O)(O)OC[C@H]1O[C@@H](n2cnc3c(N)ncnc32)[C@H](O)[C@@H]1OP(=O)(O)O (stereo not given in full)

Organism: Rattus norvegicus
Experiment: Time-dependent inhibition of rat glutaryl-co A dehydrogenase after 160 mins by spectrophotometry
Conditions: not given

Row | inhibition [%] | Structure (SMILES)
30 | 20 | CCC/C=C/C#CC(=O)SCCNC(=O)CCNC(=O)C(O)C(C)(C)COP(=O)(O)OP(=O)(O)OC[C@H]1O[C@@H](n2cnc3c(N)ncnc32)[C@H](O)[C@@H]1OP(=O)(O)O (stereo not given in full)

Organism: Rattus norvegicus
Experiment: Activity of rat glutaryl-co A dehydrogenase E370A mutant expressed in Escherichia coli BL21
Conditions: not given

Row | kcat [s⁻¹] | Structure (SMILES)
31 | 0.00078 | CC/C=C\CC(=O)SCCNC(=O)CCNC(=O)C(O)C(C)(C)COP(=O)(O)OP(=O)(O)OC[C@H]1O[C@@H](n2cnc3c(N)ncnc32)[C@H](O)[C@@H]1OP(=O)(O)O (stereo not given in full)

Organism: Rattus norvegicus
Experiment: Activity of rat glutaryl-co A dehydrogenase E370Q mutant expressed in Escherichia coli BL21
Conditions: not given

Row | kcat [s⁻¹] | Structure (SMILES)
32 | 0.0021 | CC/C=C\CC(=O)SCCNC(=O)CCNC(=O)C(O)C(C)(C)COP(=O)(O)OP(=O)(O)OC[C@H]1O[C@@H](n2cnc3c(N)ncnc32)[C@H](O)[C@@H]1OP(=O)(O)O (stereo not given in full)

Organism: Rattus norvegicus
Experiment: Irreversible inhibition of rat glutaryl-co A dehydrogenase by HPLC analysis
Conditions: not given

Row | inhibition | Structure (SMILES)
33 | Active | CCC/C=C/C#CC(=O)SCCNC(=O)CCNC(=O)C(O)C(C)(C)COP(=O)(O)OP(=O)(O)OC[C@H]1O[C@@H](n2cnc3c(N)ncnc32)[C@H](O)[C@@H]1OP(=O)(O)O (stereo not given in full)
34 | Active | CCCCCC#CC(=O)SCCNC(=O)CCNC(=O)C(O)C(C)(C)COP(=O)(O)OP(=O)(O)OC[C@H]1O[C@@H](n2cnc3c(N)ncnc32)[C@H](O)[C@@H]1OP(=O)(O)O (stereo not given in full)
